Assay results from ChEMBL document CHEMBL1150587, “Evaluation of the potential cancer chemotherapeutic efficacy of natural product isolates employing in vivo hollow fiber tests” (J Nat Prod, 2002).
Calls of active or inactive are those of the source. No cut-off for these calls is given here.

Columns and labels:
Mus musculus [1] = test: Toxicity in NCr nu/nu mouse subcutaneously implanted with human KB cells assessed as mortality at 72.6 umol/kg, ip administered on day 10, 13, 16, 20 of implantation; type: organism-based; details: in vivo
KB [2] = test: Growth inhibition of human KB cells implanted subcutaneously to NCr nu/nu mouse at 72.6 to 290.7 umol/kg, ip administered from day 3 to 6 after implantation measured on day 7 by MTT-based hollow-fiber test; type: functional
MCF7 [3] = test: Growth inhibition of human MCF7 cells implanted subcutaneously to NCr nu/nu mouse at 72.6 to 290.7 umol/kg, ip administered from day 3 to 6 after implantation measured on day 7 by MTT-based hollow-fiber test; type: functional
LNCaP [4] = test: Growth inhibition of human LNCAP cells implanted subcutaneously to NCr nu/nu mouse at 72.6 to 290.7 umol/kg, ip administered from day 3 to 6 after implantation measured on day 7 by MTT-based hollow-fiber test; type: functional
KB [5] = test: Growth inhibition of human KB cells implanted subcutaneously to NCr nu/nu mouse assessed as tumor size at 72.6 to 290.7 umol/kg, ip administered on day 10, 13, 16, 20 of implantation; type: functional, organism-based
KB [6] = test: Growth inhibition of human KB cells implanted intraperitoneally to NCr nu/nu mouse at 72.6 to 290.7 umol/kg, ip administered from day 3 to 6 after implantation measured on day 7 by MTT-based hollow-fiber test; type: functional
MCF7 [7] = test: Growth inhibition of human MCF7 cells implanted intraperitoneally to NCr nu/nu mouse at 72.6 to 290.7 umol/kg, ip administered from day 3 to 6 after implantation measured on day 7 by MTT-based hollow-fiber test; type: functional
P388 [8] = test: Growth inhibition of mouse P388 cells implanted subcutaneously to NCr nu/nu mouse at 72.6 to 290.7 umol/kg, ip administered from day 3 to 6 after implantation measured on day 7 by MTT-based hollow-fiber test; type: functional
Mus musculus [9] = test: Toxicity in NCr nu/nu mouse subcutaneously implanted with human KB cells assessed as change in body weight at 72.6 umol/kg, ip administered on day 10, 13, 16, 20 of implantation; type: organism-based; details: in vivo
P388 [10] = test: Growth inhibition of mouse P388 cells implanted intraperitoneally to NCr nu/nu mouse at 72.6 to 290.7 umol/kg, ip administered from day 3 to 6 after implantation measured on day 7 by MTT-based hollow-fiber test; type: functional
KB [11] = test: Cytotoxicity against human KB cells after 72 hrs by SRB assay; type: functional, cell-based
Lu1 [12] = test: Growth inhibition of human Lu1 cells implanted intraperitoneally to NCr nu/nu mouse at 72.6 to 290.7 umol/kg, ip administered from day 3 to 6 after implantation measured on day 7 by MTT-based hollow-fiber test; type: functional
[13] = Cytotoxicity against human KBV1 cells after 72 hrs by SRB assay; type: functional, cell-based; details: KB-V1, 72 h
Mus musculus [14] = test: Toxicity in NCr nu/nu mouse subcutaneously implanted with human KB cells assessed as change in body weight at 145.3 umol/kg, ip administered on day 10, 13, 16, 20 of implantation; type: organism-based; details: in vivo
SW626 [15] = test: Growth inhibition of human SW626 cells implanted subcutaneously to NCr nu/nu mouse at 72.6 to 290.7 umol/kg, ip administered from day 3 to 6 after implantation measured on day 7 by MTT-based hollow-fiber test; type: functional
Mus musculus [16] = test: Toxicity in NCr nu/nu mouse subcutaneously implanted with human KB cells assessed as change in body weight at 290.7 umol/kg, ip administered on day 10, 13, 16, 20 of implantation; type: organism-based; details: in vivo
P388 [17] = test: Cytotoxicity against mouse P388 cells after 72 hrs by SRB assay; type: functional, cell-based; details: P388, 72 h
SW626 [18] = test: Growth inhibition of human SW626 cells implanted intraperitoneally to NCr nu/nu mouse at 72.6 to 290.7 umol/kg, ip administered from day 3 to 6 after implantation measured on day 7 by MTT-based hollow-fiber test; type: functional
KB [19] = test: Growth inhibition of ip dosed subcutaneously implanted human KB cells to NCr nu/nu mouse administered from day 3 to 6 after implantation measured on day 7 by MTT-based hollow-fiber test; type: functional, organism-based
Lu1 [20] = test: Cytotoxicity against human Lu1 cells after 72 hrs by SRB assay; type: functional, cell-based; details: Lu1, 72 h
Mus musculus [21] = test: Toxicity in tumor cell implanted NCr nu/nu mouse assessed as body weight change at 145.3 umol/kg, ip administered from day 3 to 6 after implantation measured on day 7; type: organism-based; details: in vivo
Mus musculus [22] = test: Toxicity in tumor cell implanted NCr nu/nu mouse assessed as body weight change at 290.7 umol/kg, ip administered from day 3 to 6 after implantation measured on day 7; type: organism-based; details: in vivo
SK-MEL-2 [23] = test: Growth inhibition of ip dosed intraperitoneally implanted human SK-MEL-2 cells to NCr nu/nu mouse administered from day 3 to 6 after implantation measured on day 7 by MTT-based hollow-fiber test; type: functional, organism-based
Lu1 [24] = test: Growth inhibition of human Lu1 cells implanted subcutaneously to NCr nu/nu mouse at 72.6 to 290.7 umol/kg, ip administered from day 3 to 6 after implantation measured on day 7 by MTT-based hollow-fiber test; type: functional
SK-MEL-2 [25] = test: Growth inhibition of ip dosed subcutaneously implanted human SK-MEL-2 cells to NCr nu/nu mouse administered from day 3 to 6 after implantation measured on day 7 by MTT-based hollow-fiber test; type: functional, organism-based
SW626 [26] = test: Cytotoxicity against human SW626 cells after 72 hrs by SRB assay; type: functional, cell-based; details: SW626, 72 h
Mus musculus [27] = test: Toxicity in NCr nu/nu mouse subcutaneously implanted with human KB cells assessed as mortality at 290.7 umol/kg, ip administered on day 10, 13, 16, 20 of implantation; type: organism-based; details: in vivo
SK-MEL-2 [28] = test: Cytotoxicity against human SK-MEL-2 cells after 72 hrs by SRB assay; type: functional, cell-based; details: SK-MEL-2, 72 h
LNCaP [29] = test: Cytotoxicity against human LNCAP cells after 72 hrs by SRB assay; type: functional, cell-based
SK-MEL-2 [30] = test: Growth inhibition of human SK-MEL-2 cells implanted intraperitoneally to NCr nu/nu mouse at 72.6 to 290.7 umol/kg, ip administered from day 3 to 6 after implantation measured on day 7 by MTT-based hollow-fiber test; type: functional
Col2 = test: Cytotoxicity against human Col2 cells after 72 hrs by SRB assay; type: functional, cell-based; details: Col2, 72 h
MCF7 [31] = test: Cytotoxicity against human MCF7 cells after 72 hrs by SRB assay; details: MCF7, 72 h
SK-MEL-2 [32] = test: Growth inhibition of human SK-MEL-2 cells implanted subcutaneously to NCr nu/nu mouse at 72.6 to 290.7 umol/kg, ip administered from day 3 to 6 after implantation measured on day 7 by MTT-based hollow-fiber test; type: functional
[33] = Cytotoxicity against human BC1 cells after 72 hrs by SRB assay; details: BC1, 72 h
KB [34] = test: Growth inhibition of ip dosed intraperitoneally implanted human KB cells to NCr nu/nu mouse administered from day 3 to 6 after implantation measured on day 7 by MTT-based hollow-fiber test; type: functional, organism-based
LNCaP [35] = test: Growth inhibition of human LNCAP cells implanted intraperitoneally to NCr nu/nu mouse at 72.6 to 290.7 umol/kg, ip administered from day 3 to 6 after implantation measured on day 7 by MTT-based hollow-fiber test; type: functional
Mus musculus [36] = test: Toxicity in tumor cell implanted NCr nu/nu mouse assessed as body weight change at 72.6 umol/kg, ip administered from day 3 to 6 after implantation measured on day 7; type: organism-based; details: in vivo
Mus musculus [37] = test: Toxicity in NCr nu/nu mouse subcutaneously implanted with human KB cells assessed as mortality at 145.3 umol/kg, ip administered on day 10, 13, 16, 20 of implantation; type: organism-based; details: in vivo
Mus musculus [38] = test: Toxicity in NCr nu/nu mouse subcutaneously implanted with human KB cells assessed as body weight change at 553.1 umol/kg, ip administered from day 3 to 6 after implantation measured on day 7; type: organism-based; details: in vivo
P388 [39] = test: Cytotoxicity against mouse P388 cells; type: functional, cell-based
[40] = Inhibition of protein farnesyltransferase
KB [41] = test: Growth inhibition of human KB cells implanted intraperitoneally to NCr nu/nu mouse at 553.1 umol/kg, ip administered from day 3 to 6 after implantation measured on day 7 by MTT-based hollow-fiber test; type: functional
KB [42] = test: Growth inhibition of human KB cells implanted subcutaneously to NCr nu/nu mouse at 553.1 umol/kg, ip administered from day 3 to 6 after implantation measured on day 7 by MTT-based hollow-fiber test; type: functional
Mus musculus [43] = test: Toxicity in human Lu1 cells implanted NCr nu/nu mouse assessed as body weight loss at 252 umol/kg, ip administered from day 3 to 6 after implantation measured on day 7 by hollow-fiber test; type: organism-based; details: in vivo
Lu1 [44] = test: Growth inhibition of human Lu1 cells implanted intraperitoneally to NCr nu/nu mouse at15.5 to 124 umol/kg, ip administered from day 3 to 6 after implantation measured on day 7 by MTT-based hollow-fiber test; type: functional
Mus musculus [45] = test: Toxicity in NCr nu/nu mouse subcutaneously implanted with human Lu1 cells assessed as body weight change at 15.5 to 124 umol/kg, ip administered from day 3 to 6 after implantation measured on day 7; type: organism-based; details: in vivo
Mus musculus [46] = test: Toxicity in human Lu1 cells implanted NCr nu/nu mouse at 516 umol/kg, ip administered from day 3 to 6 after implantation measured on day 7 by hollow-fiber test; type: organism-based; details: in vivo
Lu1 [47] = test: Growth inhibition of human Lu1 cells implanted subcutaneously to NCr nu/nu mouse at15.5 to 124 umol/kg, ip administered from day 3 to 6 after implantation measured on day 7 by MTT-based hollow-fiber test; type: functional

C=C1C(=O)[C@@]23CC[C@@H]4[C@@]5(C)CCC[C@@]4(OC5=O)[C@@]2(C)CC[C@]1(OC)C3
Activity (Mus musculus [1]): Non-toxic
inhibition (INH) (KB [2]): 5.7%
inhibition (INH) (MCF7 [3]): 0%
inhibition (INH) (LNCaP [4]): 0%
Activity (KB [5]): Active
inhibition (INH) (KB [6]): 21.6%
inhibition (INH) (MCF7 [7]): 34.4%
inhibition (INH) (P388 [8]): 0%
Activity (Mus musculus [9]): 7.9%
inhibition (INH) (P388 [10]): 0%
IC50 (KB [11]): 6.4 µM
inhibition (INH) (Lu1 [12]): 0%
IC50 [13]: 5.2 µM
Activity (Mus musculus [14]): 7.6%
inhibition (INH) (SW626 [15]): 16.3%
Activity (Mus musculus [16]): 6.6%
IC50 (P388 [17]): 0.3 µM
inhibition (INH) (SW626 [18]): 0%
Activity (KB [19]): Dose-dependent effect
IC50 (Lu1 [20]): 2 µM
Activity (Mus musculus [21]): 0.03 g
Activity (Mus musculus [22]): 0.85 g
Activity (SK-MEL-2 [23]): Dose-dependent effect
inhibition (INH) (Lu1 [24]): 0%
Activity (SK-MEL-2 [25]): Dose-dependent effect
IC50 (SW626 [26]): 0.6 µM
Activity (Mus musculus [27]): Non-toxic
IC50 (SK-MEL-2 [28]): 1.2 µM
IC50 (LNCaP [29]): 1.2 µM
inhibition (INH) (SK-MEL-2 [30]): 15.5%
IC50 (Col2): 3.8 µM
IC50 (MCF7 [31]): 0.9 µM
inhibition (INH) (SK-MEL-2 [32]): 11.1%
IC50 [33]: 3.5 µM
Activity (KB [34]): Dose-dependent effect
inhibition (INH) (LNCaP [35]): 50.6%
Activity (Mus musculus [36]): 0.74 g
Activity (Mus musculus [37]): Non-toxic

C=C1C(=O)O[C@@H]2C[C@]3(C)CC[C@]4(C)[C@H](CC[C@@H]5[C@@]6(C)CCC(=O)C(C)(C)[C@@H]6CC[C@]54C)[C@H]3[C@H]12 [OCHRACEOLIDE A]
Activity (Mus musculus [38]): 0.5 g
IC50 (P388 [39]): 0.58 µM
IC50 [40]: 2.2 µM
inhibition in vivo at 553.1 µmol/kg (KB [41]): 0%
inhibition in vivo at 553.1 µmol/kg (KB [42]): 0%
IC50 (KB [11]): 20.4 µM
IC50 [13]: > 44.2 µM
IC50 (P388 [17]): 3.5 µM
IC50 (Lu1 [20]): 24.3 µM
IC50 (SW626 [26]): 35.4 µM
IC50 (SK-MEL-2 [28]): 14.8 µM
IC50 (LNCaP [29]): 13.1 µM
IC50 (Col2): 19.2 µM
IC50 (MCF7 [31]): 16.6 µM
IC50 [33]: 32.3 µM

CC(O)c1cc2c(o1)C(=O)c1ccccc1C2=O (stereo not drawn)
IC50 (KB [11]): 2.1 µM
IC50 [13]: 4.9 µM
IC50 (P388 [17]): 0.4 µM
IC50 (Lu1 [20]): 0.8 µM
Activity (Mus musculus [43]): Toxic
inhibition (INH) (Lu1 [44]): 0%
Activity (Mus musculus [45]): -0.4 g
Activity (Mus musculus [46]): Toxic
IC50 (SW626 [26]): 1.2 µM
inhibition (INH) (Lu1 [47]): 0%
IC50 (SK-MEL-2 [28]): 1.2 µM
IC50 (LNCaP [29]): 14.5 µM
IC50 (Col2): 7.4 µM
IC50 (MCF7 [31]): 2.5 µM
IC50 [33]: 13.2 µM
